{
  "source": "paper PMC10210398",
  "about": "“Genomic, functional and structural analyses elucidate evolutionary innovation within the sea anemone 8 toxin family” (BMC Biology, 2023)",
  "test_system": "Drosophila melanogaster",
  "test": "Injection activity assay in Drosophila melanogaster",
  "type": "in vivo",
  "details": "for flies dead / flies paralysed: n = 8; for number of flies dead / number of flies paralysed: of 8 flies",
  "protocol": "The activity of the recombinant SA8 peptide in Drosophila melanogaster was assessed using an injection activity assay. The mass of female D. melanogaster used for this experiment ranged from 0.8 to 1.1 mg. Eight D. melanogaster were used as an injection control group and administered 50 nL of water. Five doses of SA8 (0.00005, 0.0005, 0.005, 0.05 and 0.5 µg per fly; 50 nL) were each administered to eight D. melanogaster (n total = 40), with observations of paralysis and mortality made at 2 and 24 h post-injection (Additional file 14: File S6). Dose–response data were analysed as described previously.",
  "note": "Bridge positions count the residues as written; N and C are the ends. Ends that are not written are not given here.",
  "data": [
    {"sequence": "GYGKGRPGCYNHYDESICGGVIKDEHCKAGRGSRMGKFALKNCQFQCGLC (disulfide 9-47, 18-50, 27-43) [SA8]", "values": [
      {"measurement": "flies dead", "setting": "5e-5 µg/fly, 2 h", "value": 0.0, "unit": "%"},
      {"measurement": "flies paralysed", "setting": "5e-5 µg/fly, 2 h", "value": 0.0, "unit": "%"},
      {"measurement": "number of flies dead", "setting": "5e-5 µg/fly, 2 h", "value": 0},
      {"measurement": "number of flies paralysed", "setting": "5e-5 µg/fly, 2 h", "value": 0},
      {"measurement": "flies dead", "setting": "5e-5 µg/fly, 24 h", "value": 0.0, "unit": "%"},
      {"measurement": "flies paralysed", "setting": "5e-5 µg/fly, 24 h", "value": 0.0, "unit": "%"},
      {"measurement": "number of flies dead", "setting": "5e-5 µg/fly, 24 h", "value": 0},
      {"measurement": "number of flies paralysed", "setting": "5e-5 µg/fly, 24 h", "value": 0},
      {"measurement": "flies dead", "setting": "0.0005 µg/fly, 2 h", "value": 0.0, "unit": "%"},
      {"measurement": "flies paralysed", "setting": "0.0005 µg/fly, 2 h", "value": 0.0, "unit": "%"},
      {"measurement": "number of flies dead", "setting": "0.0005 µg/fly, 2 h", "value": 0},
      {"measurement": "number of flies paralysed", "setting": "0.0005 µg/fly, 2 h", "value": 0},
      {"measurement": "flies dead", "setting": "0.0005 µg/fly, 24 h", "value": 0.0, "unit": "%"},
      {"measurement": "flies paralysed", "setting": "0.0005 µg/fly, 24 h", "value": 0.0, "unit": "%"},
      {"measurement": "number of flies dead", "setting": "0.0005 µg/fly, 24 h", "value": 0},
      {"measurement": "number of flies paralysed", "setting": "0.0005 µg/fly, 24 h", "value": 0},
      {"measurement": "flies dead", "setting": "0.005 µg/fly, 2 h", "value": 0.0, "unit": "%"},
      {"measurement": "flies paralysed", "setting": "0.005 µg/fly, 2 h", "value": 0.0, "unit": "%"},
      {"measurement": "number of flies dead", "setting": "0.005 µg/fly, 2 h", "value": 0},
      {"measurement": "number of flies paralysed", "setting": "0.005 µg/fly, 2 h", "value": 0},
      {"measurement": "flies dead", "setting": "0.005 µg/fly, 24 h", "value": 0.0, "unit": "%"},
      {"measurement": "flies paralysed", "setting": "0.005 µg/fly, 24 h", "value": 0.0, "unit": "%"},
      {"measurement": "number of flies dead", "setting": "0.005 µg/fly, 24 h", "value": 0},
      {"measurement": "number of flies paralysed", "setting": "0.005 µg/fly, 24 h", "value": 0},
      {"measurement": "flies dead", "setting": "0.05 µg/fly, 2 h", "value": 0.0, "unit": "%"},
      {"measurement": "flies paralysed", "setting": "0.05 µg/fly, 2 h", "value": 0.0, "unit": "%"},
      {"measurement": "number of flies dead", "setting": "0.05 µg/fly, 2 h", "value": 0},
      {"measurement": "number of flies paralysed", "setting": "0.05 µg/fly, 2 h", "value": 0},
      {"measurement": "flies dead", "setting": "0.05 µg/fly, 24 h", "value": 0.0, "unit": "%"},
      {"measurement": "flies paralysed", "setting": "0.05 µg/fly, 24 h", "value": 0.0, "unit": "%"},
      {"measurement": "number of flies dead", "setting": "0.05 µg/fly, 24 h", "value": 0},
      {"measurement": "number of flies paralysed", "setting": "0.05 µg/fly, 24 h", "value": 0},
      {"measurement": "paralysis or death within 24 h, in words", "setting": "0.5 µg per fly, injected", "value": "did not result in paralysis or death"},
      {"measurement": "flies dead", "setting": "0.5 µg/fly, 2 h", "value": 0.0, "unit": "%"},
      {"measurement": "flies paralysed", "setting": "0.5 µg/fly, 2 h", "value": 0.0, "unit": "%"},
      {"measurement": "number of flies dead", "setting": "0.5 µg/fly, 2 h", "value": 0},
      {"measurement": "number of flies paralysed", "setting": "0.5 µg/fly, 2 h", "value": 0},
      {"measurement": "flies dead", "setting": "0.5 µg/fly, 24 h", "value": 0.0, "unit": "%"},
      {"measurement": "flies paralysed", "setting": "0.5 µg/fly, 24 h", "value": 0.0, "unit": "%"},
      {"measurement": "number of flies dead", "setting": "0.5 µg/fly, 24 h", "value": 0},
      {"measurement": "number of flies paralysed", "setting": "0.5 µg/fly, 24 h", "value": 0}
    ]}
  ]
}
